Measured values: patent US20090170869A1, “PIPERAZINE DERIVATIVE HAVING AFFINITY FOR THE HISTAMINE H3 RECEPTOR” (priority 2007, published 2009)
Counter-ions that a name gives are not always drawn.

Columns and labels:
[1] = Preliminary HCl-salt-formation and crystallisation experiments (crystal form stability); assay type: physicochemical; settings: hydrochloride salt crystal forms; without being bound by theory
From the text: Crystalline Form 1 (or a predominance of crystalline Form 1) is often formed initially depending on the conditions, but, depending on the conditions (such as the type of solvent and the solubility of crystalline Form 1 in it, and/or the temperature and/or temperature time course, and/or the contact time of the crystalline Form 1 with the solvent), the crystalline Form 1 can then often convert to crystalline Form 2 to a greater or lesser extent when in contact with a suitable solvent i.e. a solvent suitable for converting crystalline Form 1 to crystalline Form 2.

histamine H3 receptor = target: T1, histamine H3 receptor (Rattus norvegicus, UniProt Q9QYN8); settings: following oral administration to the rat; Medhurst et al. 2007; cited from earlier work
T1 construct: host or cells: rat cortex
T1 sequence (Q9QYN8 whole entry): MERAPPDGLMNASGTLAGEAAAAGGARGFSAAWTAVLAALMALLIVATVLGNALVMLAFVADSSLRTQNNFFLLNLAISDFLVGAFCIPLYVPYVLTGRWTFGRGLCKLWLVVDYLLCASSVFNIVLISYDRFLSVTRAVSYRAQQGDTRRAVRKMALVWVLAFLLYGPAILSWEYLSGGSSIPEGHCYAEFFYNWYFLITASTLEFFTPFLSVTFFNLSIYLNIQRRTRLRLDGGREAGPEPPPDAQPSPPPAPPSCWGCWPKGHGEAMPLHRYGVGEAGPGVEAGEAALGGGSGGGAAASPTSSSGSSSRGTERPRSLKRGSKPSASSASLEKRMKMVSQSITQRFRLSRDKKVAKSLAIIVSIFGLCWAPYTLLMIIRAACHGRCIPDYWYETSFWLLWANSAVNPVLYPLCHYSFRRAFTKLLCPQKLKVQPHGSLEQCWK

rats = settings: at certain oral doses; passive avoidance, water maze, object recognition, attentional set shift; Medhurst et al. 2007; cited from earlier work
rodent models = settings: five choice task, object recognition, elevated plus maze, acquisition of novel task, passive avoidance; literature reports; cited from earlier work
[2] = target: T2, brain histamine H3 receptor (Rattus norvegicus, UniProt Q9QYN8); assay: Rat ex vivo binding studies - rat brain histamine H3 receptor occupancy ([3H]-R-α-methylhistamine); assay type: in vivo; settings: for inhibition of [3H]-R-α-methylhistamine specific binding to the H3 receptor (surrogate for rat brain H3 receptor occupancy): 10 mg/kg oral; for specific binding of [3H]-R-α-methylhistamine to the H3 receptor: rats n=3, 10 mg/kg oral, mean ± SEM
T2 construct: from tissue; host or cells: cerebral cortex homogenate of adult male Lister hooded rats
T2 sequence (Q9QYN8 whole entry): as above
Experimental: Ex vivo binding studies were carried out to determine brain histamine H3 receptor occupancy in rats at certain time points after oral administration of a test compound.
Adult male rats (Lister hooded 200-250 g, Charles River, UK) received vehicle (1% w/v aqueous methylcellulose) (control) or the test compound (10 mg/kg) by oral gavage (n=3 per group) and were sacrificed 1 or 4 hours following oral dosing. The 1 hour and 4 hour studies were not necessarily done on the same day. Terminal blood samples were collected and brains rapidly removed. Cerebral cortex tissue was dissected from half of each brain for ex vivo binding; the other half brain can be used for pharmacokinetic analysis of brain concentrations of each compound. All dissected tissue samples were snap-frozen in liquid nitrogen, and stored at −80° C. until use. The tissues were rapidly thawed and homogenised in approximately 30 volumes of ice cold assay reaction buffer. The assay reaction buffer contained 50 mM Tris-HCl (made up using Trizma pre-set crystals pH 7.7 @25° C., Sigma cat. No. T8068-250G) and 5 mM EDTA, with a final buffer pH of 7.2 to 7.8, usually about 7.4. The crude homogenate (600-800 μg/well) was then used to measure H3 receptor binding using [^3H]-R-α-methylhistamine as radioligand. Assays measuring total binding of [^3H]-R-α-methylhistamine consisted of 50 μl assay reaction buffer, 400 μl of homogenate (corresponding to 600-800 μg/well) and 50 μl of 2 nM R(−)α-Methyl[imidazole-2,5(n)-3H]histamine dihydrochloride ([^3H]-R-α-methylhistamine; specific activity, 24 Ci mmol^−1, Amersham Biosciences, catalogue no. TRK1017). Incubations with [^3H]-R-α-methylhistamine were for 45 min at 30° C. Non-specific binding of [^3H]-R-α-methylhistamine was determined in parallel using the same assay except that 50 μl of 10 μM imetit (an H3 receptor agonist, e.g. available from Tocris) was used instead of the 50 μl of assay reaction buffer. The experiments were terminated by rapid filtration through Whatman GF/B filters (pre-soaked in 0.3% v/v polyethyleneimine (PEI)), and then the filters were washed through with 4×5 ml of ice cold harvesting buffer. The harvesting buffer contained 50 mM Tris-HCl (from Trizma pre-set crystals pH 7.7 @ 25° C.) and 5 mM MgCl2, with a final buffer pH of 7.2 to 7.8, usually about 7.4. Filters were dried and added to vials each containing 4 ml Ultima Gold MV scintillation fluid (Hewlett Packard) and radioactivity determined by liquid scintillation spectrometry using a Packard Tri-Carb 2500TR liquid scintillation counter.
Specific binding of [^3H]-R-α-methylhistamine to the H3 receptor was determined by the subtraction of the value obtained for non-specific binding from the value obtained for total binding.
Protein concentrations were determined using the Bradford assay method (Bio-Rad
Protein Assay Dye Reagent Concentrate, catalogue no. 500-0006; from Bio-Rad Laboratories GmbH, Heidemannstrasse 164, 80939 Muenchen, Germany; or from Bio-Rad, York, UK) with bovine serum albumin as a standard. Specific radioactivity in the samples was corrected for protein (i.e. per microgram of protein).
The specific binding of [^3H]-R-α-methylhistamine to the H3 receptor is expressed as a mean (n=3 rats)±SEM (standard error of the mean), as a percentage of vehicle-treated control animals. Data is also expressed as inhibition of [^3H]-R-α-methylhistamine specific binding to the H3 receptor, as a surrogate measure for H3 receptor occupancy by the test compound, calculated as 100% minus the % mean specific binding of [^3H]-R-α-methylhistamine to the H3 receptor.

[3] = Plasma clearance in the pig-PET study; assay type: in vivo; settings: Yorkshire-Landrace, iv, 50 ug/kg, 50 micrograms/kg i.v.
H3 receptor = H3 receptor (Sus scrofa, UniProt A0A287B9V8); assay: Pig-PET study with [11C]GSK189254: pig brain H3 receptor occupancy over time and kon-koff limited model; settings: 50 micrograms/kg i.v.; for Measured H3 receptor occupancy @ 10 min: 10 minutes post administration; for Measured H3 receptor occupancy @ 2.5 h: 2.5 hours post administration; for Measured H3 receptor occupancy @ 6 h: 6 hours post administration; for Kd: Kd (koff/kon); for koff: iv; for koff / kon: Salt B
Sequence of H3 receptor (A0A287B9V8 1-448): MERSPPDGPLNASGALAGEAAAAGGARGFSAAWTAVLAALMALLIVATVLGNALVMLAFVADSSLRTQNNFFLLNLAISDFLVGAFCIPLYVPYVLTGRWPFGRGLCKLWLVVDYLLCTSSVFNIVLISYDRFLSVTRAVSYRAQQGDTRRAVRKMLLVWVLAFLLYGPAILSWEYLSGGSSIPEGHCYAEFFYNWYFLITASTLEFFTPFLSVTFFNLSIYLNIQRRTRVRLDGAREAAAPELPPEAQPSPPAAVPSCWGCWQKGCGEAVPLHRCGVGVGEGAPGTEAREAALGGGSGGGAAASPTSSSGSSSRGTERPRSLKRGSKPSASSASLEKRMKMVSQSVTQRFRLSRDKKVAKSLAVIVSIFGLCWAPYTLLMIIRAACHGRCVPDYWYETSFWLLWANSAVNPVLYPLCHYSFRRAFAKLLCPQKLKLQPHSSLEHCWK

[4] = mean ± standard deviation, n=3 pigs
[5] = average model (from average plasma data and average occupancy)

Structure (SMILES): CC(C)N1CCN(C(=O)c2ccc(OC3CCOCC3)cc2)CC1 [Example 3]
- thermodynamic stability relative to crystalline Form 1 [1]: more thermodynamically stable than crystalline Form 1

Structure (SMILES): CNC(=O)c1ccc(Oc2ccc3c(c2)CCN(C2CCC2)CC3)nc1 [GSK189254]
- [3H]R-α-methylhistamine ex vivo binding in the rat cortex (histamine H3 receptor): inhibited
- performance of rats in cognition paradigms (rats): improved performance

Structure (SMILES): CC(C)(C)CCC#C[C@@H]1C[C@H]1c1c[nH]cn1 [GT-2331]
- cognitive effect in rodent models (rodent models): cognitive enhancing properties

Structure (SMILES): CC(C)N1CCCN(C(=O)c2ccc(OC3CCOCC3)cc2)CC1 [Salt B, reference compound]
- inhibition of [3H]-R-α-methylhistamine specific binding to the H3 receptor (surrogate for rat brain H3 receptor occupancy) ([2]; 1 hour after dosing): about 60%
- inhibition of [3H]-R-α-methylhistamine specific binding to the H3 receptor (surrogate for rat brain H3 receptor occupancy) ([2]; 4 hours after dosing): about 12%
- specific binding of [3H]-R-α-methylhistamine to the H3 receptor ([2]; sacrificed 1 hour after dosing): 40%+4%
- specific binding of [3H]-R-α-methylhistamine to the H3 receptor ([2]; sacrificed 4 hours after dosing): 88%+6%
- clearance ([3]; average model (from average plasma data)): 48.3 mL/min
- clearance ([3]; mean of pigs 1-3): 46.7 mL/min
- clearance ([3]; pig 1): 60 mL/min
- clearance ([3]; pig 2): 30 mL/min
- clearance ([3]; pig 3): 46.7 mL/min
- Measured H3 receptor occupancy @ 10 min (H3 receptor; [4]): 63% ± 10%
- Measured H3 receptor occupancy @ 10 min (H3 receptor; pig 1): 51%
- Measured H3 receptor occupancy @ 10 min (H3 receptor; pig 2): 69%
- Measured H3 receptor occupancy @ 10 min (H3 receptor; pig 3): 68%
- Measured H3 receptor occupancy @ 2.5 h (H3 receptor; [4]): 37% ± 16%
- Measured H3 receptor occupancy @ 2.5 h (H3 receptor; pig 1): 19%
- Measured H3 receptor occupancy @ 2.5 h (H3 receptor; pig 2): 49%
- Measured H3 receptor occupancy @ 2.5 h (H3 receptor; pig 3): 43%
- Measured H3 receptor occupancy @ 6 h (H3 receptor; [4]): 33% ± 4%
- Measured H3 receptor occupancy @ 6 h (H3 receptor; pig 1): 30%
- Measured H3 receptor occupancy @ 6 h (H3 receptor; pig 2): 32%
- Measured H3 receptor occupancy @ 6 h (H3 receptor; pig 3): 38%
- Kd (H3 receptor; [5]): 5.2 nM
- Kd (H3 receptor; mean of pigs 1-3): 4.76 nM
- Kd (H3 receptor; pig 1, in vivo PK/RO model): 5.6 nM
- Kd (H3 receptor; pig 2, in vivo PK/RO model): 5.05 nM
- Kd (H3 receptor; pig 3, in vivo PK/RO model): 3.61 nM
- koff (H3 receptor; PIG1, pig, pig 1, estimated model parameter): 5.5e-05 s⁻¹
- kon (H3 receptor; [5]): 0.0025 min⁻¹
- kon (H3 receptor; mean of pigs 1-3): 0.0024 min⁻¹
- kon (H3 receptor; pig 1, estimated model parameter): 0.0017 min⁻¹
- kon (H3 receptor; pig 2, estimated model parameter): 0.0024 min⁻¹
- kon (H3 receptor; pig 3, estimated model parameter): 0.0031 min⁻¹
- koff (H3 receptor; pig, average model (from average plasma data and average occupancy)): 7.5e-05 s⁻¹
- koff (H3 receptor; pig, mean of pigs 1-3): 6.33e-05 s⁻¹
- koff (H3 receptor; pig, pig 2, estimated model parameter): 7e-05 s⁻¹
- koff (H3 receptor; pig, pig 3, estimated model parameter): 6.5e-05 s⁻¹

Structure (SMILES): O=C(c1ccc(OCCCc2cnc[nH]2)cc1)C1CC1 [ciproxifan]
- cognitive effect in rodent models (rodent models): cognitive enhancing properties

Structure (SMILES): NC(=NCc1ccc(Cl)cc1)SCCCc1cnc[nH]1 [clobenpropit]
- cognitive effect in rodent models (rodent models): cognitive enhancing properties

Structure (SMILES): S=C(NC1CCCCC1)N1CCC(c2cnc[nH]2)CC1 [thioperamide]
- cognitive effect in rodent models (rodent models): cognitive enhancing properties
